We go through one sequence from patent publication US20220193205A1, “METHODS OF TREATING CANCER” (Foghorn Therapeutics Inc., priority 2019, published 2022).

The data set concerns ATRX null/ALT+ osteosarcoma cell line SAOS2. Description: Cell viability by CellTiter-Glo after siRNA delivery. The class given is cell-based. To be noted: compared to negative control siRNA, FIG. 3. Here is the method:
Procedure: SAOS2 cell line was seeded in 100 μL of media in 96-well plates (Corning 3904) excluding edge wells at the following density of 10000 cells per well. SOAS2 cells were seeded the day prior to transduction. Custom Stealth siRNA and Negative Control siRNA were ordered from ThermoFisher. The procedure for siRNA delivery was conducted based on the manufacturer's recommendation. The SMARCAL1 targeting siRNA sequence is: […] (SEQ ID NO: 356).
Cell viability was assayed using CellTiter-Glo (Promega G7572) at 100 μL per well. Luminescence was read using PerkinElmer EnVision 2105. Values were normalized to the average values from the negative control sgRNAs. Experiments were performed three times. Shown are the triplicate results of one representative experiment. Two tailed, type 3 Student's t-test was performed to determine statistical significance, which was conducted on Microsoft Excel (Microsoft).
(In general: In ATP-based viability assays light output follows the ATP content of the culture.)

For “UUUCACAGAGAAAUGCUUAUGCAGG (siRNA; commercial Stealth siRNA, chemistry not given here, further chemistry not given here; listed as Homo sapiens) [siRNA targeting SMARCAL-1, Custom Stealth siRNA targeting SMARCAL1, ordered from ThermoFisher]”, the cell viability entry is recorded as “decreased viability”.
